For assay [1], the target named is PEG-3 (UniProt Q6IN02). Description: inhibition of PEG-3 promoter-driven reporter – cell-based, HeLa, luciferase, CREF/GAPDH counter-screen panel, dose response (AID 624167). Particulars: HeLa PEG-Prom luciferase reporter, overnight, CREF/GAPDH counter-screens, mean of runs. (A counterscreen serves to expose hits that act by an unwanted route or on another target.)

For assay [2], the system named is PEG-3. The assay is described as above. Particulars: HeLa PEG-Prom luciferase reporter, overnight, CREF/GAPDH counter-screens. Background: A reporter such as luciferase makes a cellular process visible.
[3] abbreviates: run 1, dose range 1, individual replicate IC50 per panel.
Where [4] appears, read: run 2, dose range 1, individual replicate IC50 per panel.

The source made the active and inactive calls.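 How the source made its calls: active means mean IC50 for reducing PEG3 promoter reporter signal at or below a set limit, with IC50 above the limit in both counter screens; inactive means the rest, including counter screen hits.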 Where only a bound is given, the exact number is not on record here.

For orientation: IC50 means the concentration that inhibits the measured activity by half.

Chain of PEG-3 (UniProt Q6IN02) (Q6IN02 whole entry, looked up): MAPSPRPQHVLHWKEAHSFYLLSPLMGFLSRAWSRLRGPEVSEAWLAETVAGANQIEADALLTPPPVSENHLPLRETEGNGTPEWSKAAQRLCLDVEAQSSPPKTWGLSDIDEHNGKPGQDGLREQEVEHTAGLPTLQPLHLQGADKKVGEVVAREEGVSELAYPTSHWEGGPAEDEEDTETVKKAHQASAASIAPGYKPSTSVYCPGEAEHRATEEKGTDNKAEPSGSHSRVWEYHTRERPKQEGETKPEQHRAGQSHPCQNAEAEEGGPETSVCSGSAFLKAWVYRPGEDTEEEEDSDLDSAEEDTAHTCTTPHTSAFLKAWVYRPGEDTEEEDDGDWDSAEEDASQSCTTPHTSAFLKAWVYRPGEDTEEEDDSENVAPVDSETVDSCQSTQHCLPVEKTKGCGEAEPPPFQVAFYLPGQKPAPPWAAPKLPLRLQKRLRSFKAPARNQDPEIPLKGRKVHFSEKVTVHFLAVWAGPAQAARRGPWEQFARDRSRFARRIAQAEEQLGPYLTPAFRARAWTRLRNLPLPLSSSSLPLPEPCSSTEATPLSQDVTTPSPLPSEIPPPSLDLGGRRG

Consider `Cc1cccc(/C=C2/Sc3ccc(C(=O)NCCN4CCCC4)cc3NC2=O)c1`, for which the figures for the IC50 on PEG-3 [1], in the assay with PEG-3 [2] (setting [3]) and in the assay with PEG-3 [2] (setting [4]) were 15.4 µM, 20.8 µM and 9.95 µM, respectively.
On to `COc1cc(/C=C2\SC(=S)N(CCC(=O)N3CCCCC3)C2=O)cc(OC)c1OC`, for which, at PEG-3 [1], the IC50 entry is “inactive”. Also, the values for the concentration for half-maximal inhibition (IC50) in the assay with PEG-3 [2] (setting [3]) and in the assay with PEG-3 [2] (setting [4]) were 35.1 µM and 19.1 µM, respectively.
Taken in the same sequence, the figures for `Cc1c(OCC(=O)NC2CC(C)(C)NC(C)(C)C2)ccc2c1oc(=O)c1ccccc12` were “inactive”, 43.5 µM and over 100 µM.
`O=S(=O)(NC1CC(NS(=O)(=O)OCC(Cl)(Cl)Cl)C2CCCCC12)OCC(Cl)(Cl)Cl` (centres undefined): the IC50 on PEG-3 [1] was 11.4 µM; with PEG-3 [2] (setting [3]) it was 10.8 µM; in the assay with PEG-3 [2] (setting [4]), 11.9 µM.
As for `CCCC(=O)NC(c1cccc([N+](=O)[O-])c1)c1ccc2cccnc2c1O` (centres undefined), the IC50 is 11.1 µM at PEG-3 [1], 3.15 µM in the assay with PEG-3 [2] (setting [3]) and 19 µM in the assay on PEG-3 [2] (setting [4]).
`COC(=O)C1=C(C)N(Cc2ccccc2)C(=NCCc2c[nH]c3ccccc23)N[C@H]1c1cccc(C(F)(F)F)c1`: on PEG-3 [1], the IC50 entry was “inactive”. The half-maximal inhibitory concentration (IC50) in the assay on PEG-3 [2] (setting [3]) was 17.8 µM; with PEG-3 [2] (setting [4]), 23 µM.
For `COc1ccc(-c2cc(C(F)F)n3ncc(C(=O)n4ccnc4C)c3n2)cc1`, in that order: 12.5 µM, 18.3 µM and 6.84 µM.
For the compound `COc1ccc(CN(C)C(=O)C(Cc2ccccc2)NC(=O)c2ccccc2)cc1F` (centres undefined), the IC50 entry on PEG-3 [1] is “inactive”. In addition, the 50% inhibitory concentration (IC50) came out at 60.5 µM in the assay on PEG-3 [2] (setting [3]) and 65.3 µM with PEG-3 [2] (setting [4]).
For `CCCc1nc2oc3c(NCCCN(C)C)ncnc3c2c2c1CCCC2`, in that order: 14.7 µM, 19.5 µM and 9.84 µM.
Regarding `CC(C)n1cc(CN2CCC(C(=O)Nc3cccc(-c4cccc(Cl)c4)c3)CC2)cn1`, the values for the IC50 at PEG-3 [1], in the assay on PEG-3 [2] (setting [3]) and in the assay on PEG-3 [2] (setting [4]) were 13.4 µM, 17.4 µM and 9.39 µM, respectively.
With `COC(=O)c1cc(=O)n(Cc2ccco2)c(=Nc2ccc(F)cc2)s1`, the IC50 at PEG-3 [1] is 17.8 µM; in the assay with PEG-3 [2] (setting [3]), 17.6 µM; in the assay on PEG-3 [2] (setting [4]) it was 17.9 µM.
On to `CCCCN(C)CCNC(=O)c1cc(-c2cccnc2)nc2ccc(S(=O)(=O)N3CCC(C)CC3)cc12`, for which the IC50 was 12.9 µM at PEG-3 [1], 10.3 µM with PEG-3 [2] (setting [3]) and 15.4 µM in the assay with PEG-3 [2] (setting [4]).
For `CCCN1C/C(=C/c2cccc([N+](=O)[O-])c2)C(=O)/C(=C/c2cccc([N+](=O)[O-])c2)C1`, the IC50 entry on PEG-3 [1] was “inactive”. Besides, the IC50 is 6.69 µM in the assay with PEG-3 [2] (setting [3]) and over 100 µM with PEG-3 [2] (setting [4]).
In the case of `CN(C)CCCN1c2ccccc2Sc2ccc3ccccc3c21`, the IC50 was 16.9 µM on PEG-3 [1], 17.7 µM in the assay with PEG-3 [2] (setting [3]) and 16 µM in the assay on PEG-3 [2] (setting [4]).
As for `COc1ccc(-c2cc(C(=O)N3CCN(c4ccccc4F)CC3)c3ccccc3n2)c(OC)c1`, the IC50 is 11 µM on PEG-3 [1], 9.03 µM in the assay on PEG-3 [2] (setting [3]) and 13 µM in the assay with PEG-3 [2] (setting [4]).
For `CCN(C(=O)CSc1nc2n[nH]c(C)c2c(=N)n1-c1ccc(Cl)c(C)c1)c1cccc(C)c1`, in that order: 20 µM, 19.1 µM and 20.8 µM.
Regarding `C[C@@H](NCCCn1cnc2c(OCc3ccccc3)ncnc21)c1cccc2ccccc12`, the 50% inhibitory concentration (IC50) was 16.5 µM at PEG-3 [1], 17.7 µM in the assay with PEG-3 [2] (setting [3]) and 15.2 µM in the assay with PEG-3 [2] (setting [4]).
For the compound `COCCn1c(C)cc(C2=NNC(=NC3CC3)SC2)c1C`, the IC50 at PEG-3 [1] is 0.76 µM; in the assay with PEG-3 [2] (setting [3]) it was 1.32 µM; in the assay with PEG-3 [2] (setting [4]), under 0.2 µM.
For the compound `CCN(CC)c1ccc2nc3ccc(N)cc3[n+](-c3ccccc3)c2c1`, the figures for the IC50 on PEG-3 [1], in the assay with PEG-3 [2] (setting [3]) and in the assay with PEG-3 [2] (setting [4]) were 11.1 µM, 9.95 µM and 12.2 µM, respectively.
In the case of `CNCC[C@@H](Oc1ccc(C(F)(F)F)cc1)c1ccccc1`, the IC50 result on PEG-3 [1] is “inactive”. Besides, the IC50 with PEG-3 [2] (setting [3]) was 27 µM; in the assay with PEG-3 [2] (setting [4]) it was 53.2 µM.
Taken in the same sequence, the figures for `O=C1/C(=C\c2cccc(O)c2O)SC(=S)N1Cc1ccccc1` were “inactive”, 14.1 µM and 30.1 µM.
As to `COc1ccc(-n2c(/C=C/c3ccc(O)c(OC)c3)nc3ccccc3c2=O)cc1`, the half-inhibitory concentration (IC50) on PEG-3 [1], in the assay on PEG-3 [2] (setting [3]) and with PEG-3 [2] (setting [4]) was 15.8 µM in each case.
As for `CC(C)c1ccc(NC(=O)Nc2nc(C(C)N)cs2)cc1` (centres undefined), the results for the IC50 on PEG-3 [1], in the assay on PEG-3 [2] (setting [3]) and in the assay on PEG-3 [2] (setting [4]) were 17 µM, 20.1 µM and 13.8 µM, respectively.
In the case of `CCOc1ccc(Nc2c3ccccc3nc3ccccc23)cc1`, the IC50 was 16.9 µM at PEG-3 [1], 21.9 µM with PEG-3 [2] (setting [3]) and 11.9 µM in the assay on PEG-3 [2] (setting [4]).
For `COc1ccc(C(C(=O)NCC2CCCO2)N(Cc2cccs2)C(=O)c2snc(C(N)=O)c2N)cc1` (centres undefined), in that order: “inactive”, over 100 µM and 9.42 µM.
Taken in the same sequence, the figures for `COc1cccc(C(=O)c2sc(NC(C)C)nc2N)c1` were 15 µM, 16.5 µM and 13.6 µM.
On to `CN1CCC(N(C)C(=O)/C=C/c2cn(-c3ccccc3)nc2-c2cccs2)CC1`, for which the IC50 is 19 µM on PEG-3 [1], 18.4 µM in the assay with PEG-3 [2] (setting [3]) and 19.7 µM in the assay on PEG-3 [2] (setting [4]).
For `Cc1ccc(NC(=O)Nc2ccnc(-c3cccnc3)n2)cc1`, in that order: > 100 µM (inactive), over 100 µM and over 100 µM.
`O=C(Nc1ccccc1N1CCOCC1)c1cc(-c2ccncc2)nc2ccccc12`: at PEG-3 [1], the IC50 entry is “inactive”. The concentration for half-maximal inhibition (IC50) in the assay on PEG-3 [2] (setting [3]) was determined as 33 µM; in the assay with PEG-3 [2] (setting [4]), 78.3 µM.
In the case of `COc1cc(-c2cc(C(=O)N(C)Cc3ccccc3)c3ccccc3n2)cc(OC)c1OC`, the IC50 result at PEG-3 [1] is “inactive”. For the same compound, the IC50 in the assay with PEG-3 [2] (setting [3]) is 69.3 µM; in the assay on PEG-3 [2] (setting [4]) it was 72.2 µM.
With `Cc1cc(C)c2nc(N(CCCN(C)C)C(=O)c3ccc(S(=O)(=O)N4CCCCCC4)cc3)sc2c1`, the IC50 was 20 µM on PEG-3 [1], 24.3 µM with PEG-3 [2] (setting [3]) and 15.6 µM with PEG-3 [2] (setting [4]).
Turning to `COc1ccc(Nc2nc(-c3ccccc3)nc3ccccc23)cc1S(=O)(=O)N1CCOCC1`, the IC50 entry at PEG-3 [1] is “inactive”. For the same compound, the IC50 came to 9.14 µM in the assay on PEG-3 [2] (setting [3]) and 33.9 µM in the assay with PEG-3 [2] (setting [4]).
With `COc1cccc(/C=N/Nc2cc(C)nc(-c3ccccc3O)n2)c1O`, the IC50 was 13 µM at PEG-3 [1], 12.5 µM in the assay with PEG-3 [2] (setting [3]) and 13.6 µM with PEG-3 [2] (setting [4]).
As to `COc1ccc(C2c3c(ncn(CCCN4CCOCC4)c3=N)Oc3ccc4ccccc4c32)cc1OC` (centres undefined), the figures for the IC50 on PEG-3 [1], in the assay with PEG-3 [2] (setting [3]) and with PEG-3 [2] (setting [4]) were 18.7 µM, 20.9 µM and 16.5 µM, respectively.
For `COc1cc(-c2cc(C(=O)Nc3cc(S(=O)(=O)N4CCOCC4)ccc3C)c3ccccc3n2)cc(OC)c1OC`, in that order: 11.8 µM, 11.1 µM and 12.5 µM.
`O=C(NC1CCCCC1)C(c1cccnc1)N(C(=O)CCl)c1cccc(Cl)c1` (centres undefined): the values for the IC50 on PEG-3 [1], with PEG-3 [2] (setting [3]) and in the assay on PEG-3 [2] (setting [4]) were 15.5 µM, 17.6 µM and 13.4 µM, respectively.
Regarding `CC1=C(CC[C@@H](C)CO)OC2CC3C4CCC5CC(O)CCC5(C)C4CC(=O)C3(C)C12` (some centres undefined), the IC50 result on PEG-3 [1] is “inactive”. Further, the IC50 in the assay with PEG-3 [2] (setting [3]) was found to be 24.7 µM; with PEG-3 [2] (setting [4]), 64.2 µM.
Taken in the same sequence, the figures for `CC(=O)c1ccc(Nc2cc(C)nc3ccc(C)cc23)cc1` were 13.3 µM, 21.8 µM and 4.69 µM.

The values are drawn from PubChem BioAssay AID624167 (Sanford-Burnham Center for Chemical Genomics, 2012).
